In patent US20210395674A1, “COMPOSITION FOR INCREASING BIOLOGICAL ACTIVITY OF STEM CELLS USING MIXTURE 4F” (YOUTH BIO GLOBAL CO., LTD., priority 2019, published 2021):

System: umbilical cord blood monocytes (MNCs) / EPC colonies
Test: Colony formation, proliferative ability and cell cycle in xeno-free culture
Type: cell-based, human
Method: FIG. […] Specifically, the isolation and culture of […] (EPC) is performed by density difference centrifugation using ficoll after receiving umbilical cord blood (IRB approval number 05-2017-053, 50 cc or more) of mothers who visited the Department of Obstetrics and Gynecology, Pusan National University, Yangsan to obtain monocytes (MNCs). After red blood cell lysis, the cells were seeded (7>10^6 cells/well) in a 6-well plate coated with fibronectin (1 μg/cm^2), and were cultured for 5 days in an atmosphere of 5% CO2 at 37° C. under conditions of each medium ([…] endothelial cell differentiation (EGM2 media)). […] After culture, the medium was exchanged every day, and the EPC colony attachment was identified and subcultured when 70% or more thereof is under a confluent state. According to the type of culture medium, the cells obtained by culturing with the conventional vascular endothelial cell differentiation medium […]
[…] Example 11 were separated into single cells, and proliferative ability, cell cycle change, and colony formation ability were analyzed in the same manner as in Example 6. For the control group of this example, cells cultured by the conventional culture method (L-EPC) and cells cultured in a medium containing each single component in a xeno-free medium [a group treated with fucoidan (Fu, 0.1 μg/ml), a group treated with a tauroursodeoxycholic acid (TD, 25 μM), a group treated with oleuropein (OLP, 0.5 μM), and a group treated with a vascular endothelial growth factor (VEGF, 100 ng/ml)]were used.

vascular endothelial growth factor
colony formation ability (EPC colonies) (xeno-free medium): EPC colonies were identified | division time of the cells (xeno-free medium): prolonged | expression of VE-cadherin (xeno-free medium with single component): low
